Measured values taken from patent publication US8217063B2, “Lactam-substituted dicarboxylic acids and use thereof” (Bayer Intellectual Property GmbH, priority 2007, dated 2012).

Legend:
saphenous artery = experiment: Vasorelaxant effect in vitro (phenylephrine-contracted artery rings); design: species or system Rabbits; conditions: Oryctolagus cuniculus; rabbit saphenous artery rings, contraction induced by phenylephrine
Method: B-1. Vasorelaxant Effect In Vitro:
Rabbits are anesthetized and sacrificed by intravenous injection of thiopental sodium (about 50 mg/kg) and exsanguinated. The saphenous artery is removed and divided into rings 3 mm wide. The rings are mounted singly on in each case a pair of triangular hooks open at the end and made of 0.3 mm-thick special wire (Remanium®). Each ring is placed under an initial tension in 5 ml organ baths with Krebs-Henseleit solution which is at 37° C., is gassed with carbogen and has the following composition: NaCl 119 mM; KCl 4.8 mM; CaCl2×2H2O 1 mM; MgSO4×7H2O 1.4 mM; KH2PO4 1.2 mM; NaHCO3 25 mM; glucose 10 mM; bovine serum albumin 0.001%. The force of contraction is detected with Statham UC2 cells, amplified and digitized via A/D converters (DAS-1802 HC, Keithley Instruments, Munich) and recorded in parallel on chart recorders. Contractions are induced by addition of phenylephrine.
After several (generally 4) control cycles, the substance to be investigated is added in each further run in increasing dosage, and the height of the contraction achieved under the influence of the test substance is compared with the height of the contraction reached in the last preceding run. The concentration necessary to reduce the contraction reached in the preceding control by 50% is calculated from this (IC50). The standard application volume is 5 μl. The proportion of DMSO in the bath solution corresponds to 0.1%.

Heme-free sGC = biological target: T1, Heme-free sGC (Rattus norvegicus, UniProt P20595); experiment: Stimulation of recombinant soluble guanylate cyclase (sGC) in vitro, heme-free enzyme; format: biochemical; conditions: heme-free sGC (0.5% Tween 20)
T1 construct: made in house; host or cells: baculovirus/Sf9
T1 sequence (P20595 1-619): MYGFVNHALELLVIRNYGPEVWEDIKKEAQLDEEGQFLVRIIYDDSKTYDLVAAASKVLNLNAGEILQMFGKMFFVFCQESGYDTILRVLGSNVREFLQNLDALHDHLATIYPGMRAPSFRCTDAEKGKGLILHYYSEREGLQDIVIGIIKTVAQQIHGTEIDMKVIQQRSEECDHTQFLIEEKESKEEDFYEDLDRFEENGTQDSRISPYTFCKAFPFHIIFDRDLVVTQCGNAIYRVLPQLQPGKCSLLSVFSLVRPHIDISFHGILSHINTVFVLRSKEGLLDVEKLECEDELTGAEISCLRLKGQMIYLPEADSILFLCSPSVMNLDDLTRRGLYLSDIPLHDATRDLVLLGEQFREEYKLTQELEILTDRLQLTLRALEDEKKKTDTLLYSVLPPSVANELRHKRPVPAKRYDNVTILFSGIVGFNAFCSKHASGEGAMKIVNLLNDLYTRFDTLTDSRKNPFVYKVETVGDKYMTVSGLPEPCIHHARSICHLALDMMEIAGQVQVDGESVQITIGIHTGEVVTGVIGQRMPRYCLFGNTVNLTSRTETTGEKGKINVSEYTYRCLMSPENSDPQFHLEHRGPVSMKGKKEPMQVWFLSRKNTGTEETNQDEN
T1 sequence (P19686 1-690 partner): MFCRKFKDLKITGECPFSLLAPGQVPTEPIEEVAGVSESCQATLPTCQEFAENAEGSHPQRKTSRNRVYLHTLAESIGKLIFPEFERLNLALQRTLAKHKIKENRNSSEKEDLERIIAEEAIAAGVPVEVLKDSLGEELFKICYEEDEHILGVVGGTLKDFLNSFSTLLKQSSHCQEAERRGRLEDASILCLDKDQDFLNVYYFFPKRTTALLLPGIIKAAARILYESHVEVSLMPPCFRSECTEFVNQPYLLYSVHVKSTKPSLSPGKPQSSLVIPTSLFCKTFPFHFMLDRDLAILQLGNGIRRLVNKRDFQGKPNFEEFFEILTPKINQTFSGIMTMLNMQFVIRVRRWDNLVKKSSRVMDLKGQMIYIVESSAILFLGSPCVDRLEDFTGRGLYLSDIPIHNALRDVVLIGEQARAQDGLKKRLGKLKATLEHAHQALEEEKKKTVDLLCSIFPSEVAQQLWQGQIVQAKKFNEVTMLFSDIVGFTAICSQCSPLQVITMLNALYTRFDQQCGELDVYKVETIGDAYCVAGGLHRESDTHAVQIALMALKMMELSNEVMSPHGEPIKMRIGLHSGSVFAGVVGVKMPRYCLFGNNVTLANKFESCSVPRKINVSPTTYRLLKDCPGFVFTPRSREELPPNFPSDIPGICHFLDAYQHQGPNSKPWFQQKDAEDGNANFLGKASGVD
Method: (§1) B-2. Stimulation of Recombinant Soluble Guanylate Cyclase (sGC) In Vitro:
Investigations on the stimulation of recombinant soluble guanylate cyclase (sGC) by the compounds according to the invention with and without sodium nitroprusside, and with and without the heme-dependent sGC inhibitor 1H-1,2,4-oxadiazole-(4,3a)-quinoxalin-1-one (ODQ) are carried out by the method described in detail in the following reference: M. Hoenicka, E. M. Becker, H. Apeler, T. Sirichoke, H. Schroeder, R. Gerzer and J.-P. Stasch, “Purified soluble guanylyl cyclase expressed in a baculovirus/Sf9 system: Stimulation by YC-1, nitric oxide, and […]”, J. Mol. Med. 77 (1999), 14-23. The heme-free guanylate cyclase is obtained by adding Tween 20 to the sample buffer (0.5% in the final concentration).
(§2) The activation of sGC by a test substance is reported as n-fold stimulation of the basal activity.

[1] = biological target: T2, recombinant guanylate cyclase reporter cell line (Rattus norvegicus, UniProt P20595); experiment: sGC-activating activity in the CHO reporter cell in vitro; format: cell-based
T2 construct: expressed in transfected cells; host or cells: CHO
T2 sequence (P20595 1-619): T1 sequence (P20595 1-619)
T2 sequence (P19686 1-690 partner): T1 sequence (P19686 1-690 partner)
Method: B-3. Action at Recombinant Guanylate Cyclase Reporter Cell Lines
The cellular action of the compounds according to the invention is determined using a recombinant guanylate cyclase reporter cell line, as described in F. Wunder et al., Anal. Biochem. 339, 104-112 (2005).

Heme-containing sGC = biological target: T3, Heme-containing sGC (Rattus norvegicus, UniProt P20595); experiment: Stimulation of recombinant soluble guanylate cyclase (sGC) in vitro, heme-containing enzyme; format: biochemical
T3 construct: made in house; host or cells: baculovirus/Sf9
T3 sequence (P20595 1-619): T1 sequence (P20595 1-619)
T3 sequence (P19686 1-690 partner): T1 sequence (P19686 1-690 partner)
Description: as §1
Hoenicka, E. M. Becker, H. Apeler, T. Sirichoke, H. Schroeder, R. Gerzer and J.-P. Stasch, “Purified soluble guanylyl cyclase expressed in a baculovirus/Sf9 system: Stimulation by YC-1, nitric oxide, and carbon oxide”, J. Mol. Med. 77 (1999), 14-23. The heme-free guanylate cyclase is obtained by adding Tween 20 to the sample buffer (0.5% in the final concentration).
as §2

SMILES: O=C(O)c1ccc(CCC(/C=C/c2ccccc2OCCCN2CCCC2=O)Cc2ccc(C(=O)O)cc2)cc1 (single isomer, unassigned) [Example 3, 4-[(4E)-3-(4-Carboxybenzyl)-5-{2-[3-(2-oxopyrrolidin-1-yl)propoxy]phenyl}pent-4-en-1-yl]-benzoic acid]
- IC50 (saphenous artery): 52 nM
- Stimulation (n-fold) of heme-free sGC, Basal (Heme-free sGC; 0.01 μM Example 3): 9.9 n-fold
- Stimulation (n-fold) of heme-free sGC, Basal (Heme-free sGC; 0.1 μM Example 3): 35.2 n-fold
- Stimulation (n-fold) of heme-free sGC, Basal (Heme-free sGC; 1 μM Example 3): 69.7 n-fold
- Stimulation (n-fold) of heme-free sGC, Basal (Heme-free sGC; 10 μM Example 3): 74.6 n-fold
- MEC (minimum effective concentration) [1]: 1 nM
- Stimulation (n-fold) of sGC, +0.1 μM DEA/NO (Heme-containing sGC; 0.01 μM Example 3): 23.3 n-fold
- Stimulation (n-fold) of sGC, +0.1 μM DEA/NO (Heme-containing sGC; 0.1 μM Example 3): 34.7 n-fold
- Stimulation (n-fold) of sGC, +0.1 μM DEA/NO (Heme-containing sGC; 1 μM Example 3): 41.6 n-fold
- Stimulation (n-fold) of sGC, +0.1 μM DEA/NO (Heme-containing sGC; 10 μM Example 3): 40.0 n-fold
- Stimulation (n-fold) of sGC, +10 μM ODQ (Heme-containing sGC; 0.01 μM Example 3): 35.1 n-fold
- Stimulation (n-fold) of sGC, +10 μM ODQ (Heme-containing sGC; 0.1 μM Example 3): 98.0 n-fold
- Stimulation (n-fold) of sGC, +10 μM ODQ (Heme-containing sGC; 1 μM Example 3): 124 n-fold
- Stimulation (n-fold) of sGC, +10 μM ODQ (Heme-containing sGC; 10 μM Example 3): 134 n-fold
- Stimulation (n-fold) of sGC, Basal (Heme-containing sGC; 0.01 μM Example 3): 6.1 n-fold
- Stimulation (n-fold) of sGC, Basal (Heme-containing sGC; 0.1 μM Example 3): 11.6 n-fold
- Stimulation (n-fold) of sGC, Basal (Heme-containing sGC; 1 μM Example 3): 16.0 n-fold
- Stimulation (n-fold) of sGC, Basal (Heme-containing sGC; 10 μM Example 3): 18.9 n-fold
- Synergy with the NO donor DEA/NO on sGC (Heme-containing sGC; combination with DEA/NO): no synergistic effect
